Measurements reported in US20230012172A1, “COMPOSITIONS AND METHODS FOR TREATMENT OF PLATINUM-BASED CHEMOTHERAPEUTIC RESISTANT TUMORS” (The George Washington University, priority 2020, published 2023).

Legend:
[1] = tested on: PE023 cells; test: Cell viability assay (SRB) in PE023 cells; assay type: cell-based
Experimental: (§1) Cell culture and resistance cell line establishment. IGROV1 cells, U2OS (HTB-96; ATCC), HEK293T (CRL-11268; ATCC) and SKOV3 cells (HTB-77; ATCC) were cultured at 37° C. in DMEM with 10% Fetal Bovine Serum (FBS). PEO1 (10032308; Sigma-Aldrich), PEO4 (10032309; Sigma-Aldrich), PEO14 (10032311; Sigma-Aldrich) and PE023 cells (10032313; Sigma-Aldrich) were cultured at 37° C. in RPMI-1640 with 10% FBS. OV90 (CRL-11732; ATCC) was cultured in medium containing 1:1 MCDB 105 (Sigma) and M199 (Sigma) supplemented with 10% FBS at 37 ° C. All the cells were cultured at in a humidified incubator with 5% CO2 atmosphere. Cisplatin resistant cell lines, including SKOV3 CR, IGROV1 CR and OV90 CR, were generated using an approach similar to that reported in Zhou et al., (2018) Oncogene 37, 3981-3997, the disclosure of which is incorporated herein in its entirety.
(§2) Cell viability assay. Cells were seeded at 3,000 cells/well in 96-well plates were treated with drugs, followed by incubation for 48 hours, after which cell viability was detected using Sulforhodamine B (SRB) assay (64). Absorbance at 510 nm was detected using a SpectraMax Reader (Molecular Devices) and analyzed with SoftMax Analysis Software (Molecular Devices). Combinational index (CI) values were calculated using CompuSyn software.

[2] = tested on: PEO4 cells; test: Cell viability assay (SRB) in PEO4 cells; assay type: cell-based
Experimental: as §1, §2

[3] = tested on: IGROV1 CR cells; test: IGROV1 CR xenograft in nude mice; assay type: in vivo; details: IGROV1 CR xenograft tumors
Experimental: To further evaluate the therapeutic potential of UA in combination with cisplatin in vivo, IGROV1 CR cells were subcutaneously implanted into nude mice to form platinum drug resistant ovarian tumors. The mice with these tumors were then treated with UA, cisplatin, or combination of both via intraperitoneal injection.
Animal experiments. Xenograft experiments were performed in 6-week female BALB/c athymic nude mice (Jackson Laboratory) by subcutaneously injecting 5×10^6 IGROV1 CR cells within 50% Matrigel gelatinous protein mixture (Corning). Mice were randomized to receive treatment after reached a minimum tumor volume of 150 mm^3. 4 groups of mice (5 mice per group) were treated intraperitoneally with vehicle, cisplatin (8 mg/kg/2day), UA (10 mg/kg/2 days) and combination of UA and cisplatin (10 mg/kg/2 day of UA +8 mg/kg/2 day of cisplatin) for 2 weeks. A minimum of 6 tumors per group were assessed. The tumor volume was calculated according to the formula: length×(width^2)/2.
Immunohistochemistry. Immunohistochemical (IHC) staining and scoring were performed similar to that previously described n Zhou et al., (2018) Oncogene 37, 3981-3997, the disclosure of which is incorporated herein in its entirety. The quantification of immunohistochemical staining was scored blindly at least by two independent observers.

[4] = target: T1, SENP1 (Homo sapiens, UniProt Q9P0U3); test: Cellular thermal shift assay; details: IGROV1 cells, higher temperature
T1 sequence (Q9P0U3 1-644): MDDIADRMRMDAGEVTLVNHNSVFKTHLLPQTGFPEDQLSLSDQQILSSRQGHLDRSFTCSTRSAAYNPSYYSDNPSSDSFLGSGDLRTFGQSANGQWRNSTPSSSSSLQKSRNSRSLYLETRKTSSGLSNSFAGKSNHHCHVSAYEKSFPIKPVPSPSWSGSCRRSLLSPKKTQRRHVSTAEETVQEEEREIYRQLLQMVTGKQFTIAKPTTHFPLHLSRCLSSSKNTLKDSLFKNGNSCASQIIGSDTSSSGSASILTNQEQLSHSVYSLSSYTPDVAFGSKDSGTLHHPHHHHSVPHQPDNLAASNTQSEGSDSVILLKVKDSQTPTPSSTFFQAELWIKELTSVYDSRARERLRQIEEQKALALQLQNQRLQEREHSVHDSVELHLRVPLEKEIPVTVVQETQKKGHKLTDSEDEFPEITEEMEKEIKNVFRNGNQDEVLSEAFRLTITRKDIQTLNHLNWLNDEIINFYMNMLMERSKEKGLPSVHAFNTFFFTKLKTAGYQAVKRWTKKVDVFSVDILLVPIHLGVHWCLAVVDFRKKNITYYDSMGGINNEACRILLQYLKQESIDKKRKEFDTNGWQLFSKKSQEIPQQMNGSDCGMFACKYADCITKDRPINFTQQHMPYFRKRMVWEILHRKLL
Experimental: To determine whether UA binds to SENP1 directly, cellular thermal shift assays were performed in which a small molecule binds to a protein resulting in thermal stabilization of the protein.

SMILES | re-sensitization to cisplatin [1] | synergy with cisplatin (combination index) [1] | re-sensitization to cisplatin [2] | synergy with cisplatin (combination index) [2] | expression of pSTAT3 in tumor samples (IHC) [3] | SENP1 protein thermal stabilization versus DMSO [4]
CC1(C)CC[C@]2(C(=O)O)CC[C@]3(C)C(=CC[C@@H]4[C@@]5(C)CC[C@H](O[C@@H]6O[C@H](C(=O)O)[C@@H](O)[C@H](O[C@@H]7OC[C@@H](O)[C@H](O)[C@H]7O)[C@H]6O)C(C)(C)[C@@H]5CC[C@]43C)[C@@H]2C1 [Mc, Momordin Ic] | re-sensitized | synergy | re-sensitized | synergy | – | –
C[C@H]1[C@H](C)CC[C@]2(C(=O)O)CC[C@]3(C)C(=CC[C@@H]4[C@@]5(C)CC[C@H](O)C(C)(C)[C@@H]5CC[C@]43C)[C@H]12 [UA, ursolic acid] | – | – | – | – | suppressed | stabilized
